Patent publication US8952024B2, “Herbicidal pyrimidone derivatives” (E I du Pont de Nemours and Company, priority 2009, dated 2015)

Columns and labels:
Type in all cases: in vivo
[1] = tested on: windgrass (Apera spica-venti); experiment: Test B postemergence plant response; conditions: Postemergence
Description: (§1) At the same time, plants selected from these crop and weed species and also winter barley (Hordeum vulgare), canarygrass (Phalaris minor), chickweed (Stellaria media) and windgrass (Apera spica-venti) were planted in pots containing Redi-Earth® planting medium (Scotts Company, 14111 Scottslawn Road, Marysville, Ohio 43041) comprising spaghnum peat moss, vermiculite, wetting agent and starter nutrients and treated with postemergence applications of some of the test chemicals formulated in the same manner. Plants ranged in height from 2 to 18 cm (1- to 4-leaf stage) for postemergence treatments.
(§2) Treated plants and controls were maintained in a greenhouse for 13 to 15 days, after which time all treated plants were visually evaluated and compared to controls. Plant response ratings, summarized in Table B, are based on a scale of 0 to 100 where 0 is no effect and 100 is complete control. A dash (-) response means no test result.

[2] = tested on: chickweed (Stellaria media); experiment: Test B postemergence plant response; conditions: Postemergence
Description: as §1, §2

[3] = tested on: winter barley (Hordeum vulgare); experiment: Test B postemergence plant response; conditions: Postemergence
Description: as §1, §2

[4] = tested on: canarygrass (Phalaris minor); experiment: Test B postemergence plant response; conditions: Postemergence
Description: as §1, §2

[5] = tested on: lambsquarters (Chenopodium album); experiment: Test B pre-/postemergence plant response
Description: (§3) Seeds of plant species selected from blackgrass (Alopecurus myosuroides), downy bromegrass (Bromus tectorum), green foxtail (Setaria viridis), Italian ryegrass (Lolium multiflorum), wheat (Triticum aestivum), wild oat (Avena fatua), deadnettle (henbit deadnettle, Lamium amplexicaule), galium (catchweed bedstraw, Galium aparine), bermudagrass (Cynodon dactylon), Surinam grass (Brachiaria decumbens), cocklebur (Xanthium strumarium), corn (Zea mays), large crabgrass (Digitaria sanguinalis), woolly cupgrass (Eriochloa villosa), giant foxtail (Setaria faberii), goosegrass (Eleusine indica), johnsongrass (Sorghum halepense), kochia (Kochia scoparia), lambsquarters (Chenopodium album), morningglory (Ipomoea coccinea), nightshade (eastern black nightshade, Solanum ptycanthum), yellow nutsedge (Cyperus esculentus), pigweed (Amaranthus retroflexus), ragweed (common ragweed, Ambrosia elatior), Russian thistle (Salsola kali), soybean (Glycine max), sunflower (common oilseed sunflower, Helianthus annuus) and velvetleaf (Abutilon theophrasti) were planted into a blend of loam soil and sand and treated preemergence with test compounds formulated in a non-phytotoxic solvent mixture which included a surfactant.
as §1, §2

[6] = tested on: Italian ryegrass (Lolium multiflorum); experiment: Test B pre-/postemergence plant response
Description: as §3, §1, §2

[7] = tested on: bermudagrass (Cynodon dactylon); experiment: Test B pre-/postemergence plant response
Description: as §3, §1, §2

[8] = tested on: large crabgrass (Digitaria sanguinalis); experiment: Test B pre-/postemergence plant response
Description: as §3, §1, §2

[9] = tested on: johnsongrass (Sorghum halepense); experiment: Test B pre-/postemergence plant response
Description: as §3, §1, §2

[10] = tested on: velvetleaf (Abutilon theophrasti); experiment: Test B pre-/postemergence plant response
Description: as §3, §1, §2

[11] = tested on: blackgrass (Alopecurus myosuroides); experiment: Test B pre-/postemergence plant response
Description: as §3, §1, §2

corn (Zea mays) = experiment: Test B pre-/postemergence plant response
Description: as §3, §1, §2

[12] = tested on: ragweed (common ragweed, Ambrosia elatior); experiment: Test B pre-/postemergence plant response
Description: as §3, §1, §2

soybean (Glycine max) = experiment: Test B pre-/postemergence plant response
Description: as §3, §1, §2

wild oat (Avena fatua) = experiment: Test B pre-/postemergence plant response
Description: as §3, §1, §2

[13] = tested on: woolly cupgrass (Eriochloa villosa); experiment: Test B pre-/postemergence plant response
Description: as §3, §1, §2

[14] = tested on: yellow nutsedge (Cyperus esculentus); experiment: Test B pre-/postemergence plant response
Description: as §3, §1, §2

[15] = tested on: Surinam grass (Brachiaria decumbens); experiment: Test B pre-/postemergence plant response
Description: as §3, §1, §2

[16] = 31 g ai/ha, scale 0 to 100 (0 no effect, 100 complete control)
[17] = 62 g ai/ha, scale 0 (no effect) to 100 (complete control), 13 to 15 days
[18] = 125 g ai/ha, visual rating after 13 to 15 days, scale 0 (no effect) to 100 (complete control)
[19] = 250 g ai/ha, Preemergence, 0 to 100 scale
[20] = Postemergence, 31 g ai/ha, scale 0 to 100 (0 no effect, 100 complete control)
[21] = Postemergence, 62 g ai/ha, scale 0 (no effect) to 100 (complete control), 13 to 15 days
[22] = Postemergence, 125 g ai/ha, visual rating after 13 to 15 days, scale 0 (no effect) to 100 (complete control)
[23] = Postemergence, 250 g ai/ha, scale 0 to 100
[24] = Preemergence, 31 g ai/ha, scale 0 to 100 (0 no effect, 100 complete control)
[25] = Preemergence, 62 g ai/ha, scale 0 to 100, 0 no effect, 100 complete control
[26] = Preemergence, 125 g ai/ha, 0 to 100 scale

2-(3,5-difluorophenyl)-5-[(2-hydroxy-4-oxobicyclo[3.2.1]oct-2-en-3-yl)carbonyl]-3-(2-methoxyethyl)-4(3H)-pyrimidinone [Compound 243]
Plant response rating, Windgrass [1, 16]: 50 | Plant response rating, Windgrass [1, 17]: 55 | Plant response rating, Windgrass [1, 18]: 60 | Windgrass plant response rating ([1]; 250 g ai/ha, scale 0 to 100): 80 | Plant response rating, Chickweed [2, 16]: 20 | Plant response rating, Chickweed [2, 17]: 85 | Plant response rating, Chickweed [2, 18]: 95 | Chickweed plant response rating ([2]; 250 g ai/ha, scale 0 to 100): 98 | Plant response rating, Barley [3, 16]: 0 | Plant response rating, Barley [3, 17]: 0 | Plant response rating, Barley ([3]; 125 g ai/ha, scale 0 to 100 (0 no effect, 100 complete control), 13 to 15 days): 20 | Barley plant response rating ([3]; 250 g ai/ha, scale 0 to 100): 35 | Plant response rating, Canarygrass [4, 16]: 5 | Plant response rating, Canarygrass [4, 17]: 25 | Plant response rating, Canarygrass [4, 18]: 50 | Canarygrass plant response rating ([4]; 250 g ai/ha, scale 0 to 100): 60 | Plant response rating, Lambsquarters [5, 19]: 100 | Plant response rating, Lambsquarters [5, 20]: 75 | Plant response rating, Lambsquarters [5, 21]: 80 | Plant response rating, Lambsquarters [5, 22]: 80 | Lambsquarters plant response rating [5, 23]: 95 | Plant response rating, Lambsquarters [5, 24]: 100 | Plant response rating, Lambsquarters [5, 25]: 100 | Lambsquarters plant response rating [5, 26]: 100 | Plant response rating, Ryegrass, Italian [6, 19]: 40 | Plant response rating, Ryegrass, Italian [6, 20]: 0 | Plant response rating, Ryegrass, Italian [6, 21]: 0 | Plant response rating, Ryegrass, Italian [6, 22]: 30 | Ryegrass, Italian plant response rating [6, 23]: 45 | Plant response rating, Ryegrass, Italian [6, 24]: 0 | Plant response rating, Ryegrass, Italian [6, 25]: 0 | Ryegrass, Italian plant response rating [6, 26]: 0 | Plant response rating, Bermudagrass [7, 19]: 100 | Plant response rating, Bermudagrass [7, 20]: 90 | Plant response rating, Bermudagrass [7, 21]: 95 | Plant response rating, Bermudagrass ([7]; Postemergence, 125 g ai/ha, scale 0 to 100 (0 no effect, 100 complete control), 13 to 15 days): 98 | Bermudagrass plant response rating [7, 23]: 98 | Plant response rating, Bermudagrass [7, 24]: 98 | Plant response rating, Bermudagrass [7, 25]: 100 | Bermudagrass plant response rating [7, 26]: 100 | Plant response rating, Crabgrass, Large [8, 19]: 100 | Plant response rating, Crabgrass, Large [8, 20]: 70 | Plant response rating, Crabgrass, Large [8, 21]: 80 | Plant response rating, Crabgrass, Large [8, 22]: 85 | Crabgrass, Large plant response rating [8, 23]: 95 | Plant response rating, Crabgrass, Large [8, 24]: 0 | Plant response rating, Crabgrass, Large [8, 25]: 90 | Crabgrass, Large plant response rating [8, 26]: 100 | Plant response rating, Johnsongrass [9, 19]: 98 | Plant response rating, Johnsongrass [9, 20]: 60 | Plant response rating, Johnsongrass [9, 21]: 70 | Plant response rating, Johnsongrass [9, 22]: 85 | Johnsongrass plant response rating [9, 23]: 95 | Plant response rating, Johnsongrass [9, 24]: 0 | Plant response rating, Johnsongrass [9, 25]: 85 | Johnsongrass plant response rating [9, 26]: 90 | Plant response rating, Velvetleaf [10, 19]: 100 | Plant response rating, Velvetleaf [10, 20]: 85 | Plant response rating, Velvetleaf [10, 21]: 85 | Plant response rating, Velvetleaf [10, 22]: 90 | Velvetleaf plant response rating [10, 23]: 98 | Plant response rating, Velvetleaf [10, 24]: 98 | Plant response rating, Velvetleaf [10, 25]: 100 | Velvetleaf plant response rating [10, 26]: 100 | Plant response rating, Blackgrass [11, 19]: 40 | Plant response rating, Blackgrass [11, 20]: 0 | Plant response rating, Blackgrass [11, 21]: 0 | Plant response rating, Blackgrass [11, 22]: 40 | Blackgrass plant response rating [11, 23]: 70 | Plant response rating, Blackgrass [11, 24]: 0 | Plant response rating, Blackgrass [11, 25]: 0 | Blackgrass plant response rating [11, 26]: 20 | Plant response rating, Corn (corn (Zea mays); [19]): 10 | Plant response rating, Corn (corn (Zea mays); [20]): 15 | Plant response rating, Corn (corn (Zea mays); [21]): 45 | Plant response rating, Corn (corn (Zea mays); [22]): 75 | Corn plant response rating (corn (Zea mays); [23]): 80 | Plant response rating, Corn (corn (Zea mays); [24]): 0 | Plant response rating, Corn (corn (Zea mays); [25]): 0 | Corn plant response rating (corn (Zea mays); [26]): 0 | Plant response rating, Ragweed [12, 19]: 100 | Plant response rating, Ragweed [12, 20]: 70 | Plant response rating, Ragweed [12, 21]: 75 | Plant response rating, Ragweed [12, 22]: 75 | Ragweed plant response rating [12, 23]: 100 | Plant response rating, Ragweed [12, 24]: 55 | Plant response rating, Ragweed [12, 25]: 90 | Ragweed plant response rating [12, 26]: 100 | Plant response rating, Soybean (soybean (Glycine max); [19]): 80 | Plant response rating, Soybean (soybean (Glycine max); [20]): 70 | Plant response rating, Soybean (soybean (Glycine max); [21]): 75 | Plant response rating, Soybean (soybean (Glycine max); [22]): 85 | Soybean plant response rating (soybean (Glycine max); [23]): 98 | Plant response rating, Soybean (soybean (Glycine max); [24]): 0 | Plant response rating, Soybean (soybean (Glycine max); [25]): 10 | Plant response rating, Oat, Wild (wild oat (Avena fatua); [19]): 60 | Plant response rating, Oat, Wild (wild oat (Avena fatua); [20]): 0 | Plant response rating, Oat, Wild (wild oat (Avena fatua); [21]): 5 | Plant response rating, Oat, Wild (wild oat (Avena fatua); [22]): 40 | Oat, Wild plant response rating (wild oat (Avena fatua); [23]): 55 | Plant response rating, Oat, Wild (wild oat (Avena fatua); [24]): 0 | Plant response rating, Oat, Wild (wild oat (Avena fatua); [25]): 0 | Oat, Wild plant response rating (wild oat (Avena fatua); [26]): 0 | Plant response rating, Cupgrass, Woolly [13, 19]: 60 | Plant response rating, Cupgrass, Woolly [13, 20]: 70 | Plant response rating, Cupgrass, Woolly [13, 21]: 75 | Plant response rating, Cupgrass, Woolly [13, 22]: 80 | Cupgrass, Woolly plant response rating [13, 23]: 85 | Plant response rating, Cupgrass, Woolly [13, 24]: 0 | Plant response rating, Cupgrass, Woolly [13, 25]: 15 | Cupgrass, Woolly plant response rating [13, 26]: 45 | Plant response rating, Nutsedge, Yellow [14, 19]: 95 | Plant response rating, Nutsedge, Yellow [14, 20]: 20 | Plant response rating, Nutsedge, Yellow [14, 21]: 25 | Plant response rating, Nutsedge, Yellow [14, 22]: 60 | Nutsedge, Yellow plant response rating [14, 23]: 70 | Plant response rating, Nutsedge, Yellow [14, 24]: 0 | Plant response rating, Nutsedge, Yellow [14, 25]: 45 | Nutsedge, Yellow plant response rating [14, 26]: 80 | Plant response rating, Surinam Grass [15, 19]: 95 | Plant response rating, Surinam Grass [15, 20]: 55 | Plant response rating, Surinam Grass [15, 21]: 65 | Plant response rating, Surinam Grass [15, 22]: 75 | Surinam Grass plant response rating [15, 23]: 85 | Plant response rating, Surinam Grass [15, 24]: 0 | Plant response rating, Surinam Grass [15, 25]: 45 | Surinam Grass plant response rating [15, 26]: 95
